Tests used:
[1] = Lipid nanoparticle size by dynamic light scattering (Malvern Zetasizer Nano ZS); format: physicochemical; details: LNP: cationic lipid/DSPC/cholesterol/PEG-lipid 50:10:38.5:1.5, hEPO mRNA
Outline: (§1)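 Ribogreen fluorescence quantifies encapsulated mRNA and backscatter (173°) DLS sizes the particles. These are microfluidically mixed four-component LNPs in DPBS after dialysis.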

[2] = Encapsulation efficiency of lipid nanoparticles (Quant-it Ribogreen RNA quantification assay); format: physicochemical; details: LNP encapsulating hEPO mRNA
Outline: as §1

[3] = test system: human erythropoietin (hEPO) mRNA; assay: Animal study: hEPO expression after tail vein injection of LNPs encapsulating hEPO mRNA (serum ELISA); format: in vivo; details: hEPO level, female ICR mice, 0.5 mg/kg, 6 hours post administration; for Expression at 6 h (μg/ml): class symbols, Table 3; for Expression at 6 h: Table 2
Outline: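 Female ICR mice (6-8 weeks) received LNPs carrying hEPO mRNA by tail vein injection at 0.5 mg/kg, with MC3 LNPs dosed the same way as positive control. Blood was drawn at set times (e.g., 6 h) and serum separated. hEPO was quantified by ELISA and reported as μg/ml.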

[4] = Apparent pKa of LNP formulations (TNS fluorescence assay); details: LNP cationic lipid/DSPC/cholesterol/DMG-PEG 50/10/38.5/1.5 mol %

SMILES | polydispersity ([1]; Table 3) | size nm ([1]; Table 3) | Encapsulation Efficiency ([2]; Table 3) | Expression at 6 h (μg/ml) [3] | Apparant Pka ([4]; Table 3) | polydispersity ([1]; Table 2) | size nm ([1]; Table 2) | Encapsulation Efficiency ([2]; Table 2) | Expression at 6 h [3] | Apparant Pka ([4]; Table 2)
CCCCCCCCC(CCCCCC)CC(=O)NCCCCCN(CCCCCNC(=O)CC(CCCCCC)CCCCCCCC)CCN(CCO)C1CCCC1 (stereo not drawn) [Compound 114] | 0.025 | 87.92 nm | 89.3% | A (≥2) | 6.695 | – | – | – | – | –
CCCCCCCCC(CCCCCCCC)COC(=O)CCCCCN(CCCCCC(=O)OCC(CCCCCCCC)CCCCCCCC)CCN(CCO)C1CCOC1 (stereo not drawn) [Compound 87] | 0.037 | 65.71 nm | 91.2% | A (≥2) | 6.515 | – | – | – | – | –
CCCCCCC(CCCCCC)CC(=O)NCCCCCN(CCCCCOC(=O)CC(CCCCCC)CCCCCC)CCN(CCO)C1CCCCC1 [Compound 152] | 0.026 | 92.17 nm | 88.2% | A (≥2) | 6.686 | – | – | – | – | –
CCCCCCCCC(CCCCCC)COC(=O)CCCCCN(CCCCCC(=O)OCC(CCCCCC)CCCCCCCC)CCN(CCO)C1CCC1 (stereo not drawn) [Compound 1] | – | – | – | – | – | 0.168 | 76.5 nm | 95.7% | 16.21 µg/mL | 6.40
CCCCCCCCCCCOC(=O)CCCCCN(CCCCCC(=O)NCC(CCCCCCCC)CCCCCCCC)CCN(CCO)C1CCCCC1 [Compound 148] | 0.046 | 83.84 nm | 85.6% | A (≥2) | 7.146 | – | – | – | – | –
CCCCCCCCC(CCCCCC)COC(=O)CCCCCN(CCCCCC(=O)OCC(CCCCCC)CCCCCCCC)CCN(CCO)C1CCCCC1 (stereo not drawn) [Compound 2] | – | – | – | – | – | 0.065 | 75.3 nm | 96.8% | 6.16 µg/mL | 6.27
CCCCCCCCC(CCCCCC)COC(=O)CCCCCN(CCCCCC(=O)OCC(CCCCCC)CCCCCCCC)CCN(CCO)C1CC(O)C1 (stereo not drawn) [Compound 22] | 0.081 | 71.2 nm | 98.3% | D (<0.1) | 6.884 | – | – | – | – | –
CCCCC/C=C\CCCC(CCC/C=C\CCCCC)COC(=O)CCCCCN(CCCCCC(=O)OCC(CCC/C=C\CCCCC)CCC/C=C\CCCCC)CCN(CCO)C1CCC1 [Compound 66] | 0.064 | 63.86 nm | 80.0% | B (≥1 and <2) | 6.036 | – | – | – | – | –
CCCCCCCCC(CCCCCCCC)COC(=O)CCCCCN(CCCCCC(=O)OCC(CCCCCCCC)CCCCCCCC)CCN(CCC)C1CCC(O)CC1 (stereo not drawn) [Compound 70] | 0.034 | 77.54 nm | 84.3% | A (≥2) | 6.381 | – | – | – | – | –
CCCCCCCCC(CCCCCC)C(C)OC(=O)CCCCCN(CCCCCC(=O)OC(C)C(CCCCCC)CCCCCCCC)CCN(CCO)C1CCC1 (stereo not drawn) [Compound 38] | 0.167 | 65.94 nm | 98.7% | C (≥0.1 and <1) | 6.172 | – | – | – | – | –
CCCCCCCCC(CCCCCC)CC(=O)NCCCCCN(CCCCCNC(=O)CC(CCCCCC)CCCCCCCC)CCN(CCO)C1CCCCC1 (stereo not drawn) [Compound 115] | 0.117 | 65.12 nm | 98.2% | A (≥2) | 6.732 | – | – | – | – | –
CCCCCCCCC(CCCCCC)COC(=O)CCCCCN(CCCCCC(=O)OCC(CCCCCC)CCCCCCCC)CCN(CCO)CCCCCC (stereo not drawn) [Compound D] | – | – | – | – | – | 0.118 | 59.2 nm | 95.5% | 1.02 µg/mL | 6.28
CCCCCCCCC(CCCCCC)COC(=O)CCCCCN(CCCCCC(=O)OCC(CCCCCC)CCCCCCCC)CCN(CCO)C1COC1 (stereo not drawn) [Compound 88] | 0.21 | 66.89 nm | 97.2% | D (<0.1) | 7.41 | – | – | – | – | –
CCCCCCCCC(CCCCCC)COC(=O)CCCCCC(CCCCCC(=O)OCC(CCCCCC)CCCCCCCC)CN(C)CCO (stereo not drawn) [Compound 14] | 0.172 | 60.13 nm | 94.9% | C (≥0.1 and <1) | 9.356 | – | – | – | – | –
CCCCCCC(CCCCCC)COC(=O)CCCCCN(CCCCCC(=O)OCC(CCCCCC)CCCCCC)CCN(CCC)C1CCC(O)CC1 (stereo not drawn) [Compound 72] | 0.109 | 113.9 nm | 93.5% | A (≥2) | 6.712 | – | – | – | – | –
CCCCCCC(CCCCCC)CC(=O)NCCCCCN(CCCCCOC(=O)CC(CCCCCC)CCCCCC)CCN(CCO)C1CCCC1 [Compound 154] | 0.068 | 104.8 nm | 88.4% | A (≥2) | 6.836 | – | – | – | – | –
CCCCCCCCC(CCCCCC)COC(=O)CCCCCN(CCCCCC(=O)OCC(CCCCCC)CCCCCCCC)CCNCCO (stereo not drawn) [Compound A] | – | – | – | – | – | 0.108 | 58.5 nm | 100.0% | 0.01 µg/mL | 6.96
CCCCCCCCC(CCCCCC)CNC(=O)CCCCCN(CCCCCC(=O)NCC(CCCCCC)CCCCCCCC)CCN(CCO)C1CCCC1 (stereo not drawn) [Compound 111] | 0.049 | 92.3 nm | 89.0% | B (≥1 and <2) | 6.668 | – | – | – | – | –
CCCCCCCCC(CCCCCC)CNC(=O)CCCCCN(CCCCCC(=O)NCC(CCCCCC)CCCCCCCC)CCN(CCO)C1CCCCC1 (stereo not drawn) [Compound 120] | 0.1 | 59.78 nm | 97.1% | B (≥1 and <2) | 6.264 | – | – | – | – | –
CCCCCCCCC(CCCCCCCC)CNC(=O)CCCCCN(CCCCCC(=O)OCC(CCCCCCCC)CCCCCCCC)CCN(CCO)C1CCCCCC1 [Compound 139] | 0.052 | 67.31 nm | 92.64% | A (≥2) | 6.518 | – | – | – | – | –
CCCCCCCC(CCCCCCC)COC(=O)CCCCCN(CCCCCC(=O)OCC(CCCCCCC)CCCCCCC)CCN(CCC)C1CCC(O)CC1 (stereo not drawn) [Compound 71] | 0.038 | 91.13 nm | 93.0% | A (≥2) | 6.613 | – | – | – | – | –
CCCCCCCCC(CCCCCC)CNC(=O)CCCCCN(CCCCCC(=O)OCC(CCCCCC)CCCCCCCC)CCN(CCO)C1CC1 (stereo not drawn) [Compound 109] | 0.06 | 73.52 nm | 97.6% | A (≥2) | 6.633 | – | – | – | – | –
CCCCCCCCCCCOC(=O)CCCCCN(CCCCCC(=O)OCC(CCCCCCCC)CCCCCCCC)CCN(CCO)C1CC1 [Compound 80] | 0.06 | 76.71 nm | 85.2% | B (≥1 and <2) | 6.201 | – | – | – | – | –
CCCCCCCCC(CCCCCCCC)CC(=O)NCCCCCN(CCCCCOC(=O)CC(CCCCCCCC)CCCCCCCC)CCN(CCO)C1CCCC1 [Compound 143] | 0.032 | 58.61 nm | 93.2% | A (≥2) | 6.836 | – | – | – | – | –

Source: patent US11472766B2, “Lipid nanoparticle composition” (Suzhou Abogen Biosciences Co., Ltd., priority 2020, dated 2022)
